# Results: PubChem BioAssay (NCI)
# Several values for one entry are separate records, joined by “and”; a condition that tells them apart may be missing. Equal values may be shown once.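 Cultured in 96-well plates, cells were exposed to test compound for 48 hours across five concentrations. GI50 = concentration required for 50% inhibition of growth. TGI denotes the concentration required for complete inhibition of growth.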
# Tests used:
# Experiment in all cases: inhibition of tumour cell growth, NCI panel, 48 h
# [1] = system: NCI-H226 lung
# [2] = system: EKVX NSCLC
# [3] = system: SK-MEL-28 melanoma
# [4] = system: OVCAR-5 ovarian
# [5] = system: UO-31 renal
# [6] = system: SF-539 CNS
# [7] = system: DMS 114 small cell lung
# [8] = system: SK-MEL-2 melanoma
# [9] = system: NCI-H522 lung
# [10] = system: OVCAR-3 ovarian
# [11] = system: HT29 colon
# [12] = system: ACHN renal
# [13] = system: KM20L2 colon
# [14] = system: 786-0 renal
# [15] = system: SK-OV-3 ovarian
# [16] = system: NCI-H23 lung
# [17] = system: UACC-257 melanoma
# [18] = system: HOP-62 NSCLC
# [19] = system: COLO 205 colon
# [20] = system: RPMI-8226 leukemia
# [21] = system: OVCAR-4 ovarian
# [22] = system: U251 CNS
# [23] = system: MOLT-4 leukemia
# [24] = system: CAKI-1 renal
# [25] = system: SK-MEL-5 melanoma
# [26] = system: HCT-15 colon
# [27] = system: HCC-2998 colon
# [28] = system: M14 melanoma
# [29] = system: SNB-78 CNS
# [30] = system: XF 498 CNS
# [31] = system: M19-MEL melanoma
# [32] = system: TK-10 renal
# [33] = system: NCI-H460 lung
# [34] = system: SF-295 CNS
# [35] = system: DLD-1 colon
# [36] = system: MALME-3M melanoma
# [37] = system: SN12C renal
# [38] = system: IGROV1 ovarian
# [39] = system: CCRF-CEM leukemia
# [40] = system: A549 NSCLC
# [41] = system: UACC-62 melanoma
# [42] = system: K-562 leukemia
# [43] = system: SR leukemia
# [44] = system: SW-620 colon
# [45] = system: KM12 colon
# [46] = system: SF-268 CNS
# [47] = system: LOX IMVI melanoma
# [48] = system: SNB-19 CNS
# [49] = system: HCT-116 colon
# [50] = system: LXFL 529 NSCLC
# [51] = system: HL-60(TB) leukemia
# [52] = system: MDA-N
# [53] = system: T-47D breast
# [54] = system: RXF 393 renal
# [55] = system: HS 578T breast
# [56] = system: MDA-MB-435
# [57] = system: MCF7 breast
# [58] = system: DU-145 prostate
# [59] = system: HOP-92 NSCLC
# [60] = system: SNB-75 CNS
# [61] = system: MDA-MB-231 breast
# [62] = system: A498 renal
# [63] = system: OVCAR-8 ovarian
# [64] = system: PC-3 prostate
# [65] = system: BT-549 breast
# [66] = system: NCI/ADR-RES ovarian
# [67] = system: HOP-18 NSCLC
# [68] = system: DMS 273 small cell lung
compound,measurement,setting,value
COc1cc(/C=C(\C#N)c2ccccc2)cc(OC)c1,TGI,[1],> 100 µM
same,TGI,[2],> 100 µM
same,TGI,[3],> 100 µM
same,TGI,[4],> 100 µM
same,TGI,[5],> 100 µM
same,TGI,[6],> 100 µM
same,TGI,[7],> 100 µM
same,TGI,[8],> 100 µM
same,TGI,[9],> 100 µM
same,TGI,[10],> 100 µM
same,TGI,[11],> 100 µM
same,TGI,[12],> 100 µM
same,TGI,[13],> 100 µM
same,TGI,[14],> 100 µM
same,TGI,[15],> 100 µM
same,TGI,[16],> 100 µM
same,TGI,[17],51 µM
same,TGI,[18],> 100 µM
same,TGI,[19],> 100 µM
same,TGI,[20],> 100 µM
same,TGI,[21],> 100 µM
same,TGI,[22],> 100 µM
same,TGI,[23],58.6 µM
same,TGI,[24],> 100 µM
same,TGI,[25],> 100 µM
same,TGI,[26],> 100 µM
same,TGI,[27],> 100 µM
same,TGI,[28],> 100 µM
same,TGI,[29],> 100 µM
same,TGI,[30],> 100 µM
same,TGI,[31],> 100 µM
same,TGI,[32],> 100 µM
same,TGI,[33],> 100 µM
same,TGI,[34],73.7 µM
same,TGI,[35],> 100 µM
same,TGI,[36],> 100 µM
same,TGI,[37],> 100 µM
same,TGI,[38],> 100 µM
same,TGI,[39],> 100 µM
same,TGI,[40],> 100 µM
same,TGI,[41],> 100 µM
same,TGI,[42],79.7 µM
same,TGI,[43],> 100 µM
same,TGI,[44],> 100 µM
same,TGI,[45],> 100 µM
same,TGI,[46],> 100 µM
same,TGI,[47],65.4 µM
same,TGI,[48],> 100 µM
same,TGI,[49],> 100 µM
same,TGI,[50],> 100 µM
same,TGI,[51],> 100 µM
Nc1nc(F)nc2c1ncn2C1OC(CO)C(O)C1O (stereo not given),TGI,[1],> 100 µM
same,TGI,[2],> 100 µM
same,GI50,[3],> 100 µM
same,TGI,[3],> 100 µM
same,TGI,[4],> 100 µM
same,GI50,[5],5.1 µM
same,TGI,[5],> 100 µM
same,TGI,[52],> 100 µM
same,TGI,[6],> 100 µM
same,TGI,[8],> 100 µM
same,GI50,[9],18.4 µM
same,TGI,[9],> 100 µM
same,GI50,[53],> 56 µM
same,TGI,[53],> 100 µM
same,TGI,[10],> 100 µM
same,GI50,[54],97.6 µM
same,TGI,[54],> 100 µM
same,TGI,[11],> 100 µM
same,GI50,[12],23.2 µM
same,TGI,[12],> 100 µM
same,TGI,[55],> 100 µM
same,GI50,[14],13.2 µM
same,TGI,[14],> 100 µM
same,TGI,[15],> 100 µM
same,GI50,[16],7.99 µM
same,TGI,[16],> 88.3 µM
same,TGI,[17],> 100 µM
same,GI50,[56],17.1 µM
same,TGI,[56],> 100 µM
same,GI50,[18],13.6 µM
same,TGI,[18],> 79.6 µM
same,GI50,[19],27.8 µM
same,TGI,[19],> 100 µM
same,TGI,[20],> 100 µM
same,GI50,[57],26.3 µM
same,TGI,[57],> 100 µM
same,TGI,[21],> 100 µM
same,GI50,[58],19.7 µM
same,TGI,[58],> 100 µM
same,GI50,[22],70.7 µM
same,TGI,[22],> 100 µM
same,TGI,[23],> 100 µM
same,GI50,[24],6.25 µM
same,TGI,[24],> 96.2 µM
same,GI50,[25],39.7 µM
same,TGI,[25],> 100 µM
same,GI50,[26],56.7 µM
same,TGI,[26],> 100 µM
same,GI50,[27],5.09 µM
same,TGI,[27],> 100 µM
same,GI50,[59],14 µM
same,TGI,[59],> 100 µM and 97.6 µM
same,GI50,[28],6.39 µM
same,TGI,[28],> 58.6 µM and 40.2 µM
same,TGI,[60],> 100 µM
same,TGI,[61],> 100 µM
same,GI50,[62],> 100 µM
same,TGI,[62],> 100 µM
same,GI50,[63],3.64 µM
same,TGI,[63],> 100 µM
same,TGI,[32],> 100 µM
same,GI50,[33],43.2 µM
same,TGI,[33],> 100 µM
same,TGI,[34],> 100 µM
same,GI50,[36],28.1 µM
same,TGI,[36],> 100 µM
same,GI50,[37],5.55 µM
same,TGI,[37],> 72.2 µM and 45.1 µM
same,GI50,[64],41.6 µM
same,TGI,[64],> 100 µM
same,GI50,[38],74.1 µM
same,TGI,[38],> 100 µM
same,GI50,[39],1.21 µM
same,TGI,[39],> 77 µM
same,GI50,[40],35.6 µM
same,TGI,[40],> 100 µM
same,GI50,[41],89.8 µM
same,TGI,[41],> 100 µM
same,TGI,[42],> 100 µM
same,TGI,[65],> 100 µM
same,GI50,[43],> 68.9 µM
same,TGI,[43],> 100 µM
same,GI50,[44],60.2 µM
same,TGI,[44],> 100 µM
same,TGI,[45],> 100 µM
same,GI50,[46],55.4 µM
same,TGI,[46],> 100 µM
same,GI50,[47],19.9 µM
same,TGI,[47],> 100 µM
same,GI50,[48],14.6 µM
same,TGI,[48],> 100 µM
same,GI50,[49],19.4 µM
same,TGI,[49],> 100 µM
same,GI50,[51],3.3 µM
same,TGI,[51],> 100 µM
same,TGI,[66],> 55.5 µM and 46.6 µM
COc1ccc2nc(NC(=O)C(=O)C(C#N)c3ccc([N+](=O)[O-])cc3)sc2c1 (stereo not given),TGI,[1],> 100 µM
same,TGI,[2],> 100 µM
same,TGI,[3],> 100 µM
same,TGI,[4],> 100 µM
same,TGI,[5],> 100 µM
same,TGI,[6],> 100 µM
same,TGI,[7],> 100 µM
same,TGI,[8],> 100 µM
same,TGI,[9],> 100 µM
same,TGI,[10],> 100 µM
same,TGI,[54],> 100 µM
same,TGI,[11],> 100 µM
same,TGI,[12],> 100 µM
same,TGI,[13],> 100 µM
same,TGI,[14],> 100 µM
same,TGI,[15],> 100 µM
same,TGI,[16],> 100 µM
same,TGI,[17],> 100 µM
same,TGI,[18],> 100 µM
same,TGI,[19],> 100 µM
same,TGI,[20],> 100 µM
same,TGI,[21],> 100 µM
same,TGI,[67],> 100 µM
same,TGI,[22],> 100 µM
same,TGI,[23],> 100 µM
same,TGI,[24],> 100 µM
same,TGI,[25],> 100 µM
same,TGI,[26],> 100 µM
same,TGI,[27],> 100 µM
same,TGI,[59],> 100 µM
same,TGI,[28],> 100 µM
same,TGI,[60],> 100 µM
same,TGI,[29],> 100 µM
same,TGI,[31],> 100 µM
same,TGI,[63],> 100 µM
same,TGI,[32],> 100 µM
same,TGI,[33],> 100 µM
same,TGI,[34],> 100 µM
same,TGI,[35],> 100 µM
same,TGI,[68],> 100 µM
same,TGI,[36],> 100 µM
same,TGI,[37],> 100 µM
same,TGI,[38],> 100 µM
same,TGI,[40],> 100 µM
same,TGI,[41],> 100 µM
same,TGI,[42],> 100 µM
same,TGI,[44],> 100 µM
same,TGI,[45],> 100 µM
same,TGI,[46],> 100 µM
same,TGI,[47],> 100 µM
same,TGI,[48],> 100 µM
same,TGI,[49],> 100 µM
same,TGI,[50],> 100 µM
